The source of these data is patent US5905089A, “Use of sesquiterpene lactones for treatment of severe inflammatory disorders” (Board of Supervisors of Louisiana State University and …, priority 1998, dated 1999).

For experiment [1], the system named is COX-2. Briefly: COX-2 protein expression in LPS-stimulated alveolar macrophages (immunoblot). The format is cell-based, Rat (Sprague-Dawley). To be noted: 16h, FIG. 3A. The protocol:
(§1) Rat (Sprague-Dawley) alveolar macrophages were collected by broncho-alveolar lavage as described by Lee et al., J. Biol. Chem., vol. 267, pp. 25934-25938 (1992). The murine macrophage cell line RAW 264.7 (ATCC no. TIB-71) was cultured in Dubecco's modified Eagle's medium (DMEM) containing 10% heat-inactivated fetal bovine serum (FBS, Intergen). For the cyclooxygenase activity assay, cells were seeded in 24 well plates, and after near-confluency, cells were treated with aspirin (250 μM) for 2.5h to inactivate endogenous cyclooxygenase. […] COX activity was determined by measuring prostaglandin E2 concentrations in cells incubated with arachidonic acid (30 μM) for 10 minutes as described in Lee et al. (1992).
(§2) The protein levels of COX-2 and GAPDH were assessed by Western blot analysis using polyclonal antibodies as described in Lee et al. (1992). Polyclonal antibodies for IL-1α and JNK-1 were purchased from Genzyme and Santa Cruz Biotech, respectively.
(§3) In FIG. 3A, alveolar macrophages were incubated with LPS and various concentrations of parthenolide for 16h. Solubilized proteins were analyzed by COX-2, IL-1α or GAPDH immunoblotting. FIG. 3A is a representative immunoblot of more than five different analyses. Data are shown for various concentrations of both parthenolide (PTN) and herbimycin A (HER). […]
Background: In western blotting, separated proteins are transferred to a membrane and probed.

Experiment [2] relates to IL-1α. Briefly: IL-1α protein expression in LPS-stimulated alveolar macrophages (Western blot). The note with it: 16h, FIG. 3A. Type of experiment: cell-based, Rat (Sprague-Dawley). The protocol:
as §1, §2, §3

The test system of experiment [3] is COX-2 mRNA. The experiment in a line: Steady state levels of COX-2 mRNA in LPS-stimulated alveolar macrophages (RNase protection assay). The format is cell-based, Rat (Sprague-Dawley). The note with it: 2h, FIG. 3B. As to the method:
as §1
(§4) Total cellular RNA was isolated by TRIzoL reagent (Gibco, BRL). The RNase protection assay was performed as described in Chanmugan et al. (1995).
(§5) In FIG. 3B, alveolar macrophages were incubated with LPS in the presence of various concentrations of parthenolide for 2h. Steady state levels of mRNA were determined by RNase protection assay. In FIG. 4, alveolar macrophages were incubated with LPS in presence of 1 μg/ml of parthenolide for specified time periods. The concentrations of mRNA were determined by RNase protection assay.

The subject of experiment [4] is TNFα mRNA. The experiment in a line: Steady state levels of TNFα mRNA in LPS-stimulated alveolar macrophages (RNase protection assay). Type of experiment: cell-based, Rat (Sprague-Dawley). The note with it: FIG. 3B (2h) and FIG. 4 (parthenolide 1 μg/ml, time course). The protocol:
as §1, §4, §5

The subject of experiment [5] is IL-1β mRNA. Briefly: Steady state levels of IL-1β mRNA in LPS-stimulated alveolar macrophages (RNase protection assay). The note with it: FIG. 3B (2h) and FIG. 4 (parthenolide 1 μg/ml, time course). The format is cell-based, Rat (Sprague-Dawley). As to the method: as §1, §4, §5
The subject of experiment [6] is ERK-1. Briefly: Tyrosine phosphorylation of ERK-1 in RAW 264.7 cells (antiphosphotyrosine immunoblot). Type of experiment: cell-based, murine. To be noted: 3h pretreatment, LPS 1 μg/ml 30 min; FIG. 5A. The protocol: as §1
(§6) This detection technique was carried out essentially as described in Chanmugan et al. (1995) using 4G10 monoclonal antiphosphotyrosine antibody (UBI) and the ECL detection system (Amersham).
(§7) Parthenolide suppressed LPS-stimulated tyrosine phosphorylation of various proteins in RAW 264.7 cells as assessed by antiphosphotyrosine immunoblot, depicted in FIG. 5A. This inhibition was correlated with the suppressed expression of COX-2 and IL-1α. […] Therefore, the extent of tyrosine phosphorylation of JNK-1 was assessed by the electrophoretic mobility shift of phosphorylated JNK-1 as shown in FIG. 5B. […]

Experiment [7] has as its system P38. The experiment in a line: Tyrosine phosphorylation of P38 in RAW 264.7 cells (antiphosphotyrosine immunoblot). Type of experiment: cell-based, murine. To be noted: 3h pretreatment, LPS 1 μg/ml 30 min; FIG. 5A. The protocol: as §1, §6, §7
For experiment [8], the system named is c-Jun N-terminal kinase-1 (JNK-1). The experiment in a line: Tyrosine phosphorylation of JNK-1 in RAW 264.7 cells (electrophoretic mobility shift immunoblot). The format is cell-based, murine. To be noted: 3h pretreatment, LPS 1 μg/ml 30 min; FIG. 5B. The protocol: as §1, §2, §7
Experiment [9] relates to ERK-2. Briefly: Kinase activity of ERK-2 in RAW 264.7 cells (in-gel kinase assay, MBP substrate). Type of experiment: cell-based, murine. To be noted: 3h pretreatment, LPS 1 μg/ml 30 min; FIG. 5. The protocol: as §1
This assay was performed according to the method described by Kameshita et al., Anal. Biochem., vol. 183, pp. 139-143 (1989) using myelin basic protein (MBP) as a substrate.
as §7

In experiment [10] the test system is COX-2. The experiment in a line: COX-2 expression in LPS-stimulated RAW 264.7 cells (Western blot). Type of experiment: cell-based, murine. To be noted: LPS 1 μg/ml; FIG. 5D. The protocol:
as §1, §2
(§8) Parthenolide suppressed LPS-stimulated tyrosine phosphorylation of various proteins in RAW 264.7 cells as assessed by antiphosphotyrosine immunoblot, depicted in FIG. 5A. This inhibition was correlated with the suppressed expression of COX-2 and IL-1α. RAW 264.7 cells were pretreated with parthenolide in various concentrations or with herbimycin A (0.5 μg/ml) for 3h, and then stimulated with LPS (1 μg/ml) in the presence of the inhibitors for 30 min. […] Therefore, the extent of tyrosine phosphorylation of JNK-1 was assessed by the electrophoretic mobility shift of phosphorylated JNK-1 as shown in FIG. 5B. Parthenolide inhibited tyrosine phosphorylation of JNK-1. Another protein tyrosine kinase inhibitor, herbimycin A ([…]), inhibited tyrosine phosphorylation of the MAPK subfamily.
(§9) The mechanism by which parthenolide inhibits protein tyrosine phosphorylation is not currently known. It has been speculated that the tyrosine kinase inhibitor herbimycin A inactivates p60^v-src kinase by irreversibly binding to the sulphydryl (SH) groups of p60^v-src kinase. Y. Uehara et al., Biochem. Biophys. Res. Commun., vol. 163, pp. 803-809 (1989). The inactivation by herbimycin may occur through conjugation between highly polarized double bonds in the benzoquinone moiety of herbimycin A and the SH group of sulphydryl compounds. Without wishing to be bound by this theory, the α-methylenebutyrolactone in parthenolide may interact with biological nucleophiles such as sulphydryl groups. Indeed, pretreating cells with sulphydryl compounds abrogated the inhibitory effect of parthenolide on LPS-induced activation of MAPKs as shown in FIG. 6A. […]

The subject of experiment [11] is IL-1α. Briefly: IL-1α expression in LPS-stimulated RAW 264.7 cells (Western blot). Type of experiment: cell-based, murine. The note with it: LPS 1 μg/ml; FIG. 5D. As to the method: as §1, §2, §8, §9

Structures are written as SMILES. Entries after “also recorded” stand apart in the source; their conditions may differ.

Consider `C=C1C(=O)O[C@H]2[C@H]1CC/C(C)=C/CC[C@@]1(C)O[C@@H]21` [Compound 1, Parthenolide], for which, in experiment [1], the “expression of COX-2 protein” value is “dose-dependent inhibition”. In addition, the results for the “expression of IL-1α protein” value in experiment [2] (listed as Parthenolide) and in [2] (listed as parthenolide) were “inhibited” and “dose-dependent inhibition”, respectively. Further, the “steady state levels of COX-2 mRNA” value in experiment [3] is “dose-dependent inhibition; also recorded: suppression”. Besides, the “steady state levels of mRNA for TNFα” value in experiment [4] was “inhibited”. For the same molecule, in experiment [5], the “steady state levels of mRNA for IL-1β” value was “inhibited”. Moreover, the “tyrosine phosphorylation of ERK-1” value in [6] is “inhibited by parthenolide in a dose-dependent manner”. Besides, the “tyrosine phosphorylation of P38” value in experiment [7] was “inhibited by parthenolide in a dose-dependent manner”. Moreover, the “tyrosine phosphorylation of JNK-1” value in [8] is given as “inhibited”. For the same molecule, the “kinase activity of ERK-2” value in experiment [9] was “dose-dependent inhibition”. For the same molecule, in experiment [10], the “expression of COX-2 in RAW 264.7 cells” value is on record as “suppressed”. The “expression of IL-1α in RAW 264.7 cells” value in experiment [11] is reported as “suppressed”.
